Experimental findings from article PMC3389674, “Comparison of Soluble Guanylate Cyclase Stimulators and Activators in Models of Cardiovascular Disease Associated with Oxidative Stress” (Frontiers in Pharmacology, 2012) are described below.

Molecules are shown by their SMILES.

Data set [1] concerns Sprague Dawley rats. Briefly: myocardial ischemia/reperfusion injury. Format: in vivo, rat. Conditions: for circulating levels of cardiac troponin I (cTnI) / infarct size as a percentage of the area at risk: acute p.o. 2 h prior to ischemia, GSK2181236A 0.1 and 1.0 mg/kg, BAY 60-4552 0.3 and 3 mg/kg, 24 h reperfusion. The method, then:
This study was performed at CV Dynamics, Inc. (Newark, NJ, USA). Male SD rats were obtained from Charles River Laboratories, Inc. (Kingston, NY, USA). At 2 months of age, rats were pre-medicated with atropine (0.04 mg/kg IM) then anesthetized with a loading dose of pentobarbital sodium (65 mg/kg IP). A supplemental dose of pentobarbital sodium (16.3 mg/kg IP) was administered 30–40 min after the initial anesthesia. Marcaine (0.025–0.05 mg/rat IM) was administered locally for pain control, and anesthetized rats were subjected to a thoracotomy at the fourth intercostal space. The left descending coronary artery was occluded using a 5-0 silk snare for 30 min, followed by reperfusion for 24 h. The coronary occlusion and reperfusion were verified by visual inspection (color change of myocardium from pale to pink) and by EKG monitoring [ST elevation and widening of the QRS; Gould BioTACH ECG module (Valley View, OH, USA) with a Tektronix TDS 220 monitor (Beaverton, OR, USA)]. A 2% lidocaine solution (2–3 mg/kg) was dripped directly onto the heart as needed for arrhythmia control during ischemia, and procainamide (12.5 mg/kg IP) was administered 15 min prior to reperfusion.
Rats were orally gavaged with vehicle (0.5% HPMC, 5% DMSO, and 0.1% Tween 80; 10 mL/kg; n = 14), GSK2181236A (0.1 or 1.0 mg/kg; n = 11–14), or BAY 60-4552 (0.3 or 3.0 mg/kg; n = 10–12) 2 h prior to ischemia. Blood was collected at the initiation of ischemia and after 24 h reperfusion. Plasma was obtained for analysis of compound concentrations and levels of cardiac Troponin I (cTnI), a circulating biomarker of cardiac injury. Plasma concentrations of cTnI were determined using a commercially available ELISA (catalog #2010-2-HSP, Life Diagnostics, West Chester, PA, USA) according to the manufacturer’s instructions. Plasma compound concentrations were determined by LC/MS/MS (API 5000 triple quadrupole mass spectrometer, ABSciex, Foster City, CA, USA; Prominence liquid chromatographic system, Shimadzu, Columbia, MD, USA). Rats were anesthetized with a mixture of ketamine and xylazine (35 and 5 mg/kg, IM) and euthanized via exsanguination. Hearts were excised and perfused with 1% Evans blue dye in saline then perfused-fixed with 10% neutral buffered formalin (∼90 mmHg perfusion pressure). Hearts were sliced on the short axis from apex to base at 1–2 mm intervals, and the ischemic area (area at risk) was evaluated using Image Pro-Plus (Media Cybernetics, Inc., Bethesda, MD, USA). Fresh heart slices were stained with 1% triphenyltetrazolium and evaluated using Image Pro-Plus for determination of infarct size.

Data set [2] relates to SHR-SP cardiac tissue. Briefly: cardiac gene expression in HSFD SHR-SP after chronic treatment. Format: in vivo, rat. The method, then:
On week 8, isoflurane anesthetized rats were euthanized via exsanguination. The thoracic aorta was excised for assessment of endothelial function as described below. Hearts were snap-frozen in liquid nitrogen and stored at −80°C for later analysis of gene expression changes associated with cardiac hypertrophy and fibrosis (see below for procedure details).
Cardiac gene expression was analyzed following chronic (7 week) BAY 60-4552 or GSK2181236A treatment in HSFD SHR-SP. Hearts were homogenized in Trizol and RNA was extracted using the RNeasy Plus Mini kit protocol (Qiagen, Valencia, CA, USA) with a 40 μL elution volume. RNA was quantified using a Nanodrop Spectrophotometer ND-1000 (Thermo Fisher Scientific, Wilmington, DE, USA) and converted to cDNA using the High Capacity cDNA Reverse Transcription Kit (Applied Biosystems, Carlsbad, CA, USA). Taqman assays were performed using a 384-well plate format with individual primer-probes and Taqman Universal PCR Master Mix (Applied Biosystems) and run on the 7900 HT Fast Real-Time PCR System (Applied Biosystems). SDS 2.3 software (Applied Biosystems) was used to obtain raw Ct values with manual threshold set at 0.10. Array Studio software (version 3.6.2; OmicSoft Corporation, Cary, NC, USA) was used to normalize gene expression data, by analysis of covariance, to the housekeeper genes β-2-microglobulin (B2m) and peptidyl-prolyl cis-trans isomerase A (Ppia). No outliers were detected by means of principal component analysis.
The following genes were analyzed: α-skeletal actin (Acta1), type 1 collagen-alpha 1 (Col1a1), type 3 collagen-alpha 1 (Col3a1), connective tissue growth factor (CTGF; Ctgf), matrix metalloproteinase 2 (MMP2; Mmp2), matrix metalloproteinase 9 (MMP9; Mmp9), α-myosin heavy chain (α-MHC; Myh6), β-myosin heavy chain (β-MHC; Myh7); atrial natriuretic factor (ANF; Nppa), brain-type natriuretic peptide (BNP; Nppb), cGMP-specific phosphodiesterase 5A (PDE5A; Pde5a), type 2 cGMP-dependent protein kinase (PKG2; Prkg2), and transforming growth factor beta 1 (TGF-β1; Tgfb1).

Turning to `COC(=O)Nc1c(N)nc(-c2nn(Cc3ccccc3F)c3ncccc23)nc1N` [BAY 60-4552], the mortality rate is 2 of 12 in data set [1] (0.3 mg/kg p.o., arrhythmia and trauma during occlusion); 2 of 14 in data set [1] (3 mg/kg p.o., cardiac puncture and trauma). Moreover, the “circulating levels of cardiac troponin I (cTnI)” value in data set [1] is reported as “did not significantly alter”. Further, the “infarct size as a percentage of the area at risk” value in data set [1] is on record as “did not significantly alter”. Moreover, the “attenuation of HSFD-induced increase of α-skeletal actin expression” value in data set [2] (0.3 mg/kg/day, 7 weeks) came out at 1.3 fold; in data set [2] (3.0 mg/kg/day, 7 weeks), 1.4 fold. The “attenuation of HSFD-induced increase of ANF expression” value in data set [2] (0.3 and 3.0 mg/kg/day, P > 0.05 vs. HSFD) was “non-significant trend”.
As for `Cc1cc(-c2ccc(OC(F)(F)F)cc2)ccc1COc1ccccc1-c1cccc(-n2ncc(C(=O)O)c2C(F)(F)F)n1` [GSK2181236A, 1-(6-{2-[({3-methyl-4′-[(trifluoromethyl)oxy]-4-biphenylyl}methyl)oxy]phenyl}-2-pyridinyl)-5-(trifluoromethyl)-1H-pyrazole-4-carboxylic acid], the mortality rate in data set [1] (0.1 mg/kg p.o., due to anesthesia) is recorded as 1 of 15. The mortality rate in data set [1] (1 mg/kg p.o., arrhythmia during occlusion and unknown cause during reperfusion) is reported as 2 of 13. For the same compound, in data set [1], the “circulating levels of cardiac troponin I (cTnI)” value is recorded as “did not significantly alter” and the “infarct size as a percentage of the area at risk” value was “did not significantly alter”. In data set [2] (1.0 mg/kg/day, 7 weeks), the “attenuation of HSFD-induced increase of ANF expression” value amounted to 1.4 fold and the “attenuation of HSFD-induced increase of α-skeletal actin expression” value is 1.7 fold.
